In brackets after ≈: the same amount, converted by molar mass.
Columns and labels:
S. haemolyticus = test: MIC in Nutrient Agar; assay type: cell-based, Staphylococcus haemolyticus; details: Nutrient Agar containing 0.1 μg/ml of inducer; 37° C., 24 hours
Procedure: (§1) The triclosan-glycosides were added to Nutrient Agar (Oxoid CM0003; Thermofisher Scientific) and organisms were transferred onto the plates surface using a multi-point inoculation device (Oxoid Cathra, Thermofisher Scientific). The latter is essentially a metal plate containing a number of needles. Each needle tip (usually 36 per plate) dips into an organism suspension (in phosphate buffered saline; PBS) and the needles are then moved over the agar plate and lowered onto its surface. In this way the growth of colonies of up to 36 different organisms can be observed on one plate.
(§2) Nutrient Agar No. 2 was prepared according to the manufacturers instructions, autoclaved and cooled to 50° C. Test compounds were then added as filter sterilised solutions (50:50 deionised water:ethanol), to give final concentrations from 256 μg/ml to 0 μg/ml in doubling dilutions. […] The mixtures were swirled then four plates (25 ml molten agar) were poured for each concentration. Plates were dried in a laminar flow cabinet then inoculated with overnight cultures of organisms that had been decimally diluted twice in sterile saline solution (approximately 10^7 cfu/ml) using a multi-point inoculator. Plates were then incubated at 37° C. for 24 hours. MICs were determined as the concentration at which no growth was observed.

[1] = test system: Aeromonas hydrophila OCC 778; test: MIC in Nutrient Broth No. 2; assay type: cell-based; details: Nutrient Broth No. 2
Procedure: (§3) Bacteria species as indicated in Table 1 were incubated for approximately 24 hours at 37° C.
(§4) The tests were repeated with the addition of inducers. Methyl glycoside was the main inducer used, but other suitable inducers include isopropyl-β-D-thiogalactopyranoside, p-nitrophenyl-α-L-arabinopyranoside and p-nitrophenyl-β-D-xylopyranoside. Concentration of inducer in all cases was 100 μg/ml.

[2] = test system: Citrobacter freundii OCC 851; test: MIC in Nutrient Broth No. 2; assay type: cell-based; details: Nutrient Broth No. 2
Procedure: as §3, §4

[3] = test system: Bacillus subtilis NCTC 10073; test: MIC in Nutrient Broth No. 2; assay type: cell-based; details: Nutrient Broth No. 2
Procedure: as §3, §4

[4] = test system: Serratia marcescens OCC 217; test: MIC in Nutrient Broth No. 2; assay type: cell-based; details: Nutrient Broth No. 2
Procedure: as §3, §4

[5] = test system: Enterobacter aerogenes ATCC 13048; test: MIC in Nutrient Broth No. 2; assay type: cell-based; details: Nutrient Broth No. 2
Procedure: as §3, §4

[6] = test system: Proteus mirabilis ATCC 12453; test: MIC in Nutrient Broth No. 2; assay type: cell-based; details: Nutrient Broth No. 2
Procedure: as §3, §4

[7] = test system: Enterococcus faecium ATCC 19434; test: MIC in Nutrient Broth No. 2; assay type: cell-based; details: Nutrient Broth No. 2
Procedure: as §3, §4

[8] = test system: Enterococcus faecalis ATCC 29212; test: MIC in Nutrient Broth No. 2; assay type: cell-based; details: Nutrient Broth No. 2
Procedure: as §3, §4

Proteus vulgaris OCC 195 = test: MIC in Nutrient Broth No. 2; assay type: cell-based; details: Nutrient Broth No. 2
Procedure: as §3, §4

[9] = test system: Ps. Aeruginosa ATCC 27853; test: MIC in Nutrient Broth No. 2; assay type: cell-based; details: Nutrient Broth No. 2
Procedure: as §3, §4

Hafnia alvei ATCC 13337 = test: MIC in Nutrient Broth No. 2; assay type: cell-based; details: Nutrient Broth No. 2
Procedure: as §3, §4

Salmonella = test: MIC in Nutrient Broth No. 2; assay type: cell-based; details: 11 strains, Nutrient Broth No. 2
Procedure: as §3, §4

Escherichia coli = test: MIC in Nutrient Broth No. 2; assay type: cell-based; details: 8 strains, Nutrient Broth No. 2
Procedure: as §3, §4

[10] = test system: Bacillus cereus ATCC 14579; test: MIC in Nutrient Broth No. 2; assay type: cell-based; details: Nutrient Broth No. 2
Procedure: as §3, §4

Ent. cloacae ATCC 13047 = test: MIC in Nutrient Broth No. 2; assay type: cell-based, Enterobacter cloacae; details: Nutrient Broth No. 2
Procedure: as §3, §4

C. freundii = test: MIC in Nutrient Agar; assay type: cell-based, Citrobacter freundii; details: Nutrient Agar containing 0.1 μg/ml of inducer; 37° C., 24 hours
Procedure: as §1, §2

[11] = test system: Bacteria species as indicated in Table 1; test: MIC in Nutrient Broth No. 2 (over organisms of Table 1); assay type: cell-based; details: all strains of Citrobacter freundii, Enterobacter cloacae, Escherichia coli, Escherichia hermanii, Hafnia alvei, Klebsiella, Proteus, Salmonella, Staphylococcus
Procedure: as §3, §4

Kleb. pneumoniae = test: MIC in Nutrient Agar; assay type: cell-based, Klebsiella pneumoniae; details: Nutrient Agar containing 0.1 μg/ml of inducer; 37° C., 24 hours
Procedure: as §1, §2

Aer. hydrophila = test: MIC in Nutrient Agar; assay type: cell-based, Aeromonas hydrophila; details: Nutrient Agar containing 0.1 μg/ml of inducer; 37° C., 24 hours
Procedure: as §1, §2

SMILES	MIC (S. haemolyticus)	MIC ([1]; with inducer 100 μg/ml)	MIC ([1]; without inducer)	MIC ([2]; with inducer 100 μg/ml)	MIC ([2]; without inducer)	MIC ([3]; with inducer 100 μg/ml)	MIC ([3]; without inducer)	MIC ([4]; with inducer 100 μg/ml)	MIC ([4]; without inducer)	MIC ([5]; with inducer 100 μg/ml)	MIC ([5]; without inducer)	MIC ([6]; with inducer 100 μg/ml)	MIC ([6]; without inducer)	MIC ([7]; with inducer 100 μg/ml)	MIC ([7]; without inducer)	MIC ([8]; with inducer 100 μg/ml)	MIC ([8]; without inducer)	MIC (Proteus vulgaris OCC 195; with inducer 100 μg/ml)	MIC (Proteus vulgaris OCC 195; without inducer)	MIC ([9]; with inducer 100 μg/ml)	further results
OC[C@H]1O[C@H](Oc2cc(Cl)ccc2Oc2ccc(Cl)cc2Cl)[C@@H](O)[C@@H](O)[C@@H]1O [α-D-Mannoside, triclosan-α-D-mannopyranoside]	8 µg/mL (≈ 17.7 µM)	>256 µg/mL	>256 µg/mL	64 µg/mL (≈ 142 µM)	64 µg/mL (≈ 142 µM)	256 µg/mL (≈ 567 µM)	128 µg/mL (≈ 283 µM)	>256 µg/mL	>256 µg/mL	32 µg/mL (≈ 70.8 µM)	32 µg/mL (≈ 70.8 µM)	8 µg/mL (≈ 17.7 µM)	16 µg/mL (≈ 35.4 µM)	256 µg/mL (≈ 567 µM)	256 µg/mL (≈ 567 µM)	256 µg/mL (≈ 567 µM)	256 µg/mL (≈ 567 µM)	32 µg/mL (≈ 70.8 µM)	32 µg/mL (≈ 70.8 µM)	>256 µg/mL	MIC ([9]; without inducer): >256 µg/mL; MIC (Hafnia alvei ATCC 13337; with inducer 100 μg/ml): 4 µg/mL (≈ 8.86 µM); MIC (Hafnia alvei ATCC 13337; without inducer): 4 µg/mL (≈ 8.86 µM); MIC (Salmonella; with inducer 100 μg/ml): 8 to 32 µg/mL; MIC (Salmonella; without inducer): 16 to 64 µg/mL; MIC (Escherichia coli; with inducer 100 μg/ml): 4 to 32 µg/mL; MIC (Escherichia coli; without inducer): 4 to 64 µg/mL; MIC ([10]; with inducer 100 μg/ml): 256 µg/mL (≈ 567 µM); MIC ([10]; without inducer): 256 µg/mL (≈ 567 µM); MIC (Ent. cloacae ATCC 13047; with inducer 100 μg/ml): 8 µg/mL (≈ 17.7 µM); MIC (Ent. cloacae ATCC 13047; without inducer): 8 µg/mL (≈ 17.7 µM); MIC (C. freundii): 64 µg/mL (≈ 142 µM); inhibition of growth at 64 μg/ml in Nutrient Broth [11]: inhibited; MIC (Kleb. pneumoniae): 16 µg/mL (≈ 35.4 µM); MIC (Aer. hydrophila): 256 µg/mL (≈ 567 µM)
O[C@@H]1[C@H](Oc2cc(Cl)ccc2Oc2ccc(Cl)cc2Cl)OC[C@@H](O)[C@H]1O [β-D-Arabinoside, triclosan-β-D-arabinopyranoside]	16 µg/mL (≈ 37.9 µM)	>256 µg/mL	>256 µg/mL	64 µg/mL (≈ 152 µM)	64 µg/mL (≈ 152 µM)	128 µg/mL (≈ 304 µM)	128 µg/mL (≈ 304 µM)	>256 µg/mL	>256 µg/mL	64 µg/mL (≈ 152 µM)	128 µg/mL (≈ 304 µM)	16 µg/mL (≈ 37.9 µM)	32 µg/mL (≈ 75.9 µM)	256 µg/mL (≈ 607 µM)	256 µg/mL (≈ 607 µM)	256 µg/mL (≈ 607 µM)	256 µg/mL (≈ 607 µM)	64 µg/mL (≈ 152 µM)	128 µg/mL (≈ 304 µM)	>256 µg/mL	MIC ([9]; without inducer): >256 µg/mL; MIC (Hafnia alvei ATCC 13337; with inducer 100 μg/ml): 4 µg/mL (≈ 9.49 µM); MIC (Hafnia alvei ATCC 13337; without inducer): 4 µg/mL (≈ 9.49 µM); MIC (Salmonella; with inducer 100 μg/ml): 32 to 64 µg/mL; MIC (Salmonella; without inducer): 32 to 64 µg/mL; MIC (Escherichia coli; with inducer 100 μg/ml): 4 to 32 µg/mL; MIC (Escherichia coli; without inducer): 8 to 32 µg/mL; MIC ([10]; with inducer 100 μg/ml): 128 µg/mL (≈ 304 µM); MIC ([10]; without inducer): 128 µg/mL (≈ 304 µM); MIC (Ent. cloacae ATCC 13047; with inducer 100 μg/ml): 16 µg/mL (≈ 37.9 µM); MIC (Ent. cloacae ATCC 13047; without inducer): 16 µg/mL (≈ 37.9 µM); MIC (C. freundii): 64 µg/mL (≈ 152 µM); MIC (Kleb. pneumoniae): 8 µg/mL (≈ 19 µM); MIC (Aer. hydrophila): 256 µg/mL (≈ 607 µM)
OC[C@H]1O[C@@H](Oc2cc(Cl)ccc2Oc2ccc(Cl)cc2Cl)[C@H](O)[C@@H](O)[C@@H]1O [β-D-Glucoside, triclosan-β-D-glucopyranoside]	16 µg/mL (≈ 35.4 µM)	256 µg/mL (≈ 567 µM)	>256 µg/mL	8 µg/mL (≈ 17.7 µM)	64 µg/mL (≈ 142 µM)	32 µg/mL (≈ 70.8 µM)	256 µg/mL (≈ 567 µM)	>256 µg/mL	>256 µg/mL	16 µg/mL (≈ 35.4 µM)	64 µg/mL (≈ 142 µM)	2 µg/mL (≈ 4.43 µM)	16 µg/mL (≈ 35.4 µM)	256 µg/mL (≈ 567 µM)	>256 µg/mL	128 µg/mL (≈ 283 µM)	16 µg/mL (≈ 35.4 µM)	8 µg/mL (≈ 17.7 µM)	64 µg/mL (≈ 142 µM)	>256 µg/mL	MIC ([9]; without inducer): >256 µg/mL; MIC (Hafnia alvei ATCC 13337; with inducer 100 μg/ml): 0.5 µg/mL (≈ 1.11 µM); MIC (Hafnia alvei ATCC 13337; without inducer): 4 µg/mL (≈ 8.86 µM); MIC (Salmonella; with inducer 100 μg/ml): 2 to 8 µg/mL; MIC (Escherichia coli; with inducer 100 μg/ml): 1 to 8 µg/mL; MIC (Escherichia coli; without inducer): 8 to 64 µg/mL; MIC ([10]; with inducer 100 μg/ml): 128 µg/mL (≈ 283 µM); MIC ([10]; without inducer): 256 µg/mL (≈ 567 µM); MIC (Ent. cloacae ATCC 13047; with inducer 100 μg/ml): 1 µg/mL (≈ 2.21 µM); MIC (Ent. cloacae ATCC 13047; without inducer): 16 µg/mL (≈ 35.4 µM); MIC (C. freundii): 64 µg/mL (≈ 142 µM); MIC (Kleb. pneumoniae): 4 µg/mL (≈ 8.86 µM); MIC (Aer. hydrophila): >256 µg/mL

From patent US9908912B2, “Triclosan derivatives and uses thereof” (priority 2012, dated 2018)
